Entries after “also recorded” stand apart in the source; their conditions may differ.
Key:
Arom^hum mice [1] = experiment: Hernia prevention in Arom^hum mice (treatment before hernia formation); type: in vivo, mouse; conditions: male Arom^hum mice; 12-week treatment started at 3-3.5 weeks of age (before hernia formation); vs placebo
Text: Our study design is robust, utilizing Arom^hum mice with endpoints examined after treatment with placebo or anti-P4/PGR, and compared to those of WT littermates using 2 different tissue sites: UAM and LAM (normal or weakened/herniated). Inguinal hernia affects predominantly men vs. women (10:1 ratio). Inguinal hernias are unique to male mice and aged men. […] Here, we will focus on the effects of P4/PGR action on skeletal muscle integrity and hernia formation in males, and our work will be carried out in male mice or tissues primarily from men over 50 years of age. We will use mouse or human tissues or primary cells to closely recapitulate in vivo pathology.
(§1) The mouse scrotum is connected to the peritoneal cavity with a narrow funicular (or inguinal) canal, with walls composed of LAM tissue. Structurally normal LAM tissue is essential to maintain the tone of this canal and prevent herniation of the bowel.
Experiment 1a1: Does the addition of P4 to E2 treatment accelerate LAM fibrosis and hernia formation in WT mice? […] We hypothesize that this effect is primarily mediated by the E2 induction of PGR expression in LAM fibroblasts. […] If this were true, the addition of pharmacologic quantities of P4 (75 mg/pellet for 12-week release)^73 to E2 (0.3 mg/pellet for 12-week release)^23-25 in WT mice should accelerate this phenotype. […] See Statistical Methods above for sample size calculation. Hernia surface area will be measured using a digital caliper and calculated as previously described (length×width)^19. At the designated endpoints, LAM and UAM (control) from each mouse will be resected, with one-half of the tissue snap-frozen in liquid nitrogen, and the other half fixed in 4% phosphate-buffered paraformaldehyde for histological and IHC analyses (see below). All tissue and serum (for P4/E2 levels) samples will be collected between 10:00 AM and noon to avoid possible variability in daily hormone fluctuations. […] We will continue to complete the rest of the proposed study in this subaim. We will also assess whether and extent of muscle fibrosis and atrophy will be induced in P4+E2-induced large hernias and E2-induced small hernias. […] P4 antagonists show various levels of selectivity for PGR. […] The use of 3 distinct P4/PGR antagonists with different properties will establish the role of PGR in muscle fibrosis and hernia.
Hernias will be classified as small, medium, or large if the bulging area through muscle tissue is 125-175 mm^2, 175-225 mm^2, or >225 mm^2, respectively. […] We will assess whether muscle fibrosis, atrophy, and hernia are arrested or reversed. […] Hernia size will be measured. After completion of treatment, the mice will be dissected, and LAM, UAM (control), and serum will be collected. A total of 100 mg of tissue (LAM and UAM) will be obtained and frozen for measurement of tissue E2/P4.

WT mice = experiment: E2/P4-induced hernia formation in WT mice; type: in vivo, mouse; conditions: WT male mice
Text: as §1, with “All placebo-treated Arom^hum mice developed hernias starting from 5 weeks of age. None of the WT littermates developed hernias. […] The” for “The”
Experiment 1a1: Does the addition of P4 to E2 treatment accelerate LAM fibrosis and hernia formation in WT mice? It was shown that treatment of male WT mice with extremely high doses of systemic estrogens starting around or after the onset of puberty caused inguinal hernia in one third to half of these animals^23-25. We hypothesize that this effect is primarily mediated by the E2 induction of PGR expression in LAM fibroblasts. Male mice have readily detectable P4 levels in the circulation and LAM tissue to activate PGR in LAM fibroblasts (FIG. 6). If this were true, the addition of pharmacologic quantities of P4 (75 mg/pellet for 12-week release)^73 to E2 (0.3 mg/pellet for 12-week release)^23-25 in WT mice should accelerate this phenotype. Our ongoing preliminary study, whereby a 6-week treatment with P4+E2 induced large inguinal hernia in all WT mice (FIG. 7A), supports the following experiment. Long-term (8 weeks or longer) treatment with E2 only is anticipated to cause hernias in up to half of WT mice based on previous findings^23-25. We will determine whether P4+E2 treatment over 12 weeks will give rise to larger hernias in a higher number of mice compared with E2-only treatment. […] See Statistical Methods above for sample size calculation. Hernia surface area will be measured using a digital caliper and calculated as previously described (length×width)^19. At the designated endpoints, LAM and UAM (control) from each mouse will be resected, with one-half of the tissue snap-frozen in liquid nitrogen, and the other half fixed in 4% phosphate-buffered paraformaldehyde for histological and IHC analyses (see below). […]

[2] = system: PGR expression in LAM fibroblasts of Arom^hum mice; experiment: E2/ESR1-induced PGR expression (mRNA, immunoblotting) in LAM fibroblasts; type: cell-based, mouse; conditions: for E2-induced expression of Pgr (mRNA): 100 nM ICI 182,780 or 10 μM MPP, pretreated 2 h, E2 10 nM
Procedure: (A) Time course of E2 (10 nM) effect on PGR protein expression in LAM fibroblasts of Arom^hum mice. […] (E) PGR protein levels in LAM primary fibroblasts from WT and Arom^hum mice after treatment with ICI with or without E2 for 48 h. Cells were pretreated with ICI or MPP for 2 h before adding E2. Data are representative of 3 independent experiments; B-actin serves as a loading control for (A) and (E). Vch: vehicle. […] MPP: A selective ESR1 antagonist.
Breast cancer cell line T47D served as a positive control.

Arom^hum mice [3] = conditions: earlier work of the applicant (refs 19, 22); cited from earlier work
Arom^hum mice [4] = experiment: Reversal of existing (large) hernias in Arom^hum mice; type: in vivo, mouse; conditions: Arom^hum mice with large hernias; 3.75 mg/pellet, 12-week subcutaneous release; n=10-11
Text: Arrows in panels B and D point to hernias.
The scrotal area in WT mice is under ˜125 mm^2. We classified hernias as small, medium, or large based on the bulging area through muscle tissue of 125-175 mm^2, 175-225 mm^2, or ≥225 mm^2, respectively. […] Since long-term anti-E2/ESR1 treatments cause significant side effects (e.g., sexual dysfunction or osteoporosis), we mechanistically explored the specific and major downstream effectors of E2/ESR1 signaling leading to muscle fibrosis. […] The key observations that support the role of P4/PGR signaling are summarized below.

Arom^hum mice [5] = conditions: previously shown (ref 19); cited from earlier work

For `C[C@]12CCC(=O)C[C@@H]1CC[C@@H]1[C@@H]2CC[C@]2(C)[C@@H](O)CC[C@@H]12` [DHT], the “hernia formation / hernia size” value (Arom^hum mice [1]) was “None prevented hernia formation”.

For `C[C@]12CC[C@@H]3c4ccc(O)cc4CC[C@H]3[C@@H]1CC[C@@H]2O` [E2, Estradiol], the hernia size induced (WT mice; treatment started at the age of 9 weeks) was 125-175 mm2.

In the case of `Cc1cc(-c2ncc(CC(=O)Nc3ccc(-c4cnccn4)cn3)cc2C)ccn1` [LGK974], the “hernia formation / hernia size” value (Arom^hum mice [1]) is reported as “None prevented hernia formation”.

With `Cc1c(-c2ccc(O)cc2)nn(-c2ccc(O)cc2)c1-c1ccc(OCCN2CCCCC2)cc1` [MPP] the “E2-induced expression of Pgr (mRNA)” value [2] was “significantly decreased E2-induced expression of Pgr”.

In the case of `CC(=O)[C@H]1CC[C@H]2[C@@H]3CCC4=CC(=O)CC[C@]4(C)[C@H]3CC[C@]12C` [P4, Progesterone], the hernia formation (WT mice; treatment started at 9-10 weeks of age, up to 12 weeks) is reported as “did not induce any hernia formation”.

In the case of `C[C@]12CC[C@@H]3c4ccc(O)cc4C[C@@H](CCCCCCCCC[S+]([O-])CCCC(F)(F)C(F)(F)F)[C@H]3[C@@H]1CC[C@@H]2O` (some centres unmarked) [fulvestrant], the “reversal of existing hernias” value (Arom^hum mice [3]) is listed as “reversed existing hernias and restored normal anatomy in Arom^hum mice”, the “E2-induced expression of Pgr (mRNA)” value [2] is listed as “significantly decreased E2-induced expression of Pgr” and the “protein levels of 3 PGR isoforms (immunoblotting)” value ([2]; LAM fibroblasts of WT and Arom^hum mice, ICI with or without E2 for 48 h) is listed as “blocked”. For the same compound, the “reversal of large hernias, LAM fibrosis and muscle atrophy” value (Arom^hum mice [4]) was “reversed large hernias and restored normal anatomy and reversed LAM tissue fibrosis and muscle atrophy; also recorded: successfully reversed them to normal size, rescued LAM fibrosis, reversed muscle atrophy, and restored normal anatomy”.

In the case of `N#Cc1ccc(C(c2ccc(C#N)cc2)n2cncn2)cc1` [letrozole, Letrozole], the “reversal of existing hernias” value (Arom^hum mice [3]) is listed as “reversed existing hernias and restored normal anatomy in Arom^hum mice” and the “prevention of LAM fibrosis and hernia formation” value (Arom^hum mice [5]) is listed as “entirely prevents this phenotype”.

Source: patent US20250186461A1, “METHODS AND COMPOSITIONS FOR TREATING AND/OR PREVENTING HERNIAS” (Northwestern University, priority 2023, published 2025)
